In paper PMC5564600 (Oncotarget, 2017):
≈ marks a conversion by molar mass, not a printed value. Each block holds one molecule with its values, some of them ahead of it.

How the values were obtained:
PI3Kγ = PI3Kγ (Homo sapiens, UniProt P48736); test: PI3K (human) HTRF assay, PI3Kγ; type: biochemical; conditions: ATP 10 μM, mean ± SEM
[1] = Plasma pharmacokinetics of SN32976 and stable major metabolites in mice (30 mg/kg oral); conditions: mouse plasma, 30 mg/kg SN32976 oral gavage
mTOR = mTOR (Homo sapiens, UniProt P42345); test: SelectScreen Z'LYTE kinase assay (Invitrogen), mTOR; type: biochemical; conditions: determined by Invitrogen, mean ± SEM, n=2
[2] = Metabolite identification in dog liver microsomes; type: in vitro ADME; conditions: 10 μM SN32976, 60 min
[3] = Metabolite identification in monkey liver microsomes; type: in vitro ADME, Cynomolgus monkey; conditions: 10 μM SN32976, 60 min
[4] = Metabolite identification in mouse liver microsomes; type: in vitro ADME; conditions: 10 μM SN32976, 60 min
[5] = Metabolite identification in rat liver microsomes; type: in vitro ADME; conditions: 10 μM SN32976, 60 min
[6] = Metabolite identification in human liver microsomes; type: in vitro ADME; conditions: 10 μM SN32976, 60 min
PI3Kα [7] = biological target: PI3Kα (Homo sapiens, UniProt P42336); test: PI3K (human) HTRF assay, PI3Kα; type: biochemical
Sequence of PI3Kα (Homo sapiens, UniProt P42336) (P42336 whole entry): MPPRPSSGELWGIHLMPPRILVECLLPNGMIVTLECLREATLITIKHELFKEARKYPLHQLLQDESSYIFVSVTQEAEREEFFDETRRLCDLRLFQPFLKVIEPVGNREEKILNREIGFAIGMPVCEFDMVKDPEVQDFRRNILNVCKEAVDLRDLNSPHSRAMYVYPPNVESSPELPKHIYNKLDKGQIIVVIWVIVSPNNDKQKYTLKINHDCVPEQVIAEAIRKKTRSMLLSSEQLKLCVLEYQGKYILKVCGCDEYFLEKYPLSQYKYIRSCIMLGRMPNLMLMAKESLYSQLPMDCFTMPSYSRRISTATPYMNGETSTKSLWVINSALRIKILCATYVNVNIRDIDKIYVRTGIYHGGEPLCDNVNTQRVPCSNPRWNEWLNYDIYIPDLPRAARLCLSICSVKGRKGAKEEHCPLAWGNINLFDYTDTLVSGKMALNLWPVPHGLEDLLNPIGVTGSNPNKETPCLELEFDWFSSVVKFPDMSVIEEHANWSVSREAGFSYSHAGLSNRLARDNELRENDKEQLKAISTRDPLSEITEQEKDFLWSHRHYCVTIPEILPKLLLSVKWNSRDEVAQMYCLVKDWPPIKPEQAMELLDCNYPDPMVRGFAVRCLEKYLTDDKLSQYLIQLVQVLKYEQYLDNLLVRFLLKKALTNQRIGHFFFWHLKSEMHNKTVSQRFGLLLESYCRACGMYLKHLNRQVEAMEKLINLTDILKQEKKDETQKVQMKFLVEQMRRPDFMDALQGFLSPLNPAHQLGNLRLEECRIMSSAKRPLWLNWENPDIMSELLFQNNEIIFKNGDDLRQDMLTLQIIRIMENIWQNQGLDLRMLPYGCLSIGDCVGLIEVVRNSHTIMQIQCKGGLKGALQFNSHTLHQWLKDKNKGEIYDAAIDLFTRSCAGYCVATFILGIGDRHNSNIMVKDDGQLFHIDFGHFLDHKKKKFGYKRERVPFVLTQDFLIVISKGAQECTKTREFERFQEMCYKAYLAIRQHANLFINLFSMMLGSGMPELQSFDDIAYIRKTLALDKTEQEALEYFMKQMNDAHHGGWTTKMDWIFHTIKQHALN
Sequence of PI3Kα (Homo sapiens, UniProt P42336) (P27986 whole entry partner): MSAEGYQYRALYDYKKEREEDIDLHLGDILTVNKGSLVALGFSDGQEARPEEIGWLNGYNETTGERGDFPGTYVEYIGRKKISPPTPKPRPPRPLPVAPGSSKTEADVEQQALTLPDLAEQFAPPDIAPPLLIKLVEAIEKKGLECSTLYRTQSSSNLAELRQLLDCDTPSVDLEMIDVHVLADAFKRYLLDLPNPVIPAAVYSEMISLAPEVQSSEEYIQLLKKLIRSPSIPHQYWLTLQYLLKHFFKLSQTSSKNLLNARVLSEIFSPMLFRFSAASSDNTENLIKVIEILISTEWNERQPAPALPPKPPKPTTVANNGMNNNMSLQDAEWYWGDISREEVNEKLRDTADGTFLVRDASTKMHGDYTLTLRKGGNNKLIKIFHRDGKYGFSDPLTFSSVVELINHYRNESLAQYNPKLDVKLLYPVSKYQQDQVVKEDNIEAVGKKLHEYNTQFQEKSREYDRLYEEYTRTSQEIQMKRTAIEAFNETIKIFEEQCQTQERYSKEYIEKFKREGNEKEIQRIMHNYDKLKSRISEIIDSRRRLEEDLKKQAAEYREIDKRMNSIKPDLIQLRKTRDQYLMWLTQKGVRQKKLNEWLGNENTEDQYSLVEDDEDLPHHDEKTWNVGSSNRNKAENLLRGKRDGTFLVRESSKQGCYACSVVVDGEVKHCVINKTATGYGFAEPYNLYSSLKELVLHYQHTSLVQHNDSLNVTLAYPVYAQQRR

PI3Kδ = PI3Kδ (Homo sapiens, UniProt O00329); test: PI3K (human) HTRF assay, PI3Kδ; type: biochemical; conditions: ATP 10 μM, mean ± SEM
[8] = Tumor and plasma concentrations of SN32976 and major metabolites in mice with U-87 MG tumors after multiple doses; conditions: multiple doses of 100 mg/kg SN32976
PI3Kβ = PI3Kβ (Homo sapiens, UniProt P42338); test: PI3K (human) HTRF assay, PI3Kβ; type: biochemical; conditions: ATP 10 μM, mean ± SEM
Sequence of PI3Kβ (P42338 whole entry): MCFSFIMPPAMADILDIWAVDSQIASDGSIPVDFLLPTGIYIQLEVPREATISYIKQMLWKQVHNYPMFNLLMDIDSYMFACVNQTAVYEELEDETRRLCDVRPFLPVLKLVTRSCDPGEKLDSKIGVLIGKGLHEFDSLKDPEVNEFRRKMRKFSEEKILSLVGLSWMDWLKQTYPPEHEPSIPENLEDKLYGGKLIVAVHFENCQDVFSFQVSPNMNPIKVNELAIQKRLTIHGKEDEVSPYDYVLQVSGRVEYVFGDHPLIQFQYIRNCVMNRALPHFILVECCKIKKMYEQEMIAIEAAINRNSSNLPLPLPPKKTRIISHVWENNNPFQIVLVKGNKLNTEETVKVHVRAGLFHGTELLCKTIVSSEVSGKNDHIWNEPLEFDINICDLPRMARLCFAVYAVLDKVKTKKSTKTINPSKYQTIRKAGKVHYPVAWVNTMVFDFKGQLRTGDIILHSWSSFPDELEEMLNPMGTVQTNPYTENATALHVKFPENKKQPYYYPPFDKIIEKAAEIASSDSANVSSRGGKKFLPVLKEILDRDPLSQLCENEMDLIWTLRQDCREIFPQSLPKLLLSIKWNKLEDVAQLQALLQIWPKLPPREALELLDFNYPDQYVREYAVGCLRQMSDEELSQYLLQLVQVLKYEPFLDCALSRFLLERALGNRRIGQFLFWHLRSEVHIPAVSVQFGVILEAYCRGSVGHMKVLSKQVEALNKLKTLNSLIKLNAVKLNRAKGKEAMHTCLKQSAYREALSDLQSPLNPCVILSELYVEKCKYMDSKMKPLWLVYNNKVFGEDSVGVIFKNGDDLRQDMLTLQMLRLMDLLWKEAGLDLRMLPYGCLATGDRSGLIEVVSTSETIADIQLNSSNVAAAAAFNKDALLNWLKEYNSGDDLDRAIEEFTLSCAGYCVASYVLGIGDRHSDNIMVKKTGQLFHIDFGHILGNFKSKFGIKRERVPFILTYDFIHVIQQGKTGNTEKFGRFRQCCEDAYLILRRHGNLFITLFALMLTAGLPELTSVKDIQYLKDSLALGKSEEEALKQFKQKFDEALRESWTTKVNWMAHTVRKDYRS
Sequence of PI3Kβ (P27986 whole entry partner): as the sequence (P27986 whole entry partner) above

CYP2D6 = biological target: T1, CYP2D6 (Homo sapiens, UniProt P10635); test: Cytochrome P450 inhibition in human liver microsomes, CYP2D6; type: in vitro ADME; conditions: read-out: CYP inhibition 2D6 IC50
T1 construct: was evaluated in human liver microsomes incubated with SN32976; tissue Cyprotex (contract research organization); host or cells: human liver microsomes

PIK3C2B = biological target: T2, PIK3C2B (Homo sapiens, UniProt O00750); test: KINOMEscan, PIK3C2B; type: binding; conditions: 10 μM
T2 construct: purchased Ambit Biosciences (scanMAXX KINOMEscan)

CYP1A2 [9] = test: Cytochrome P450 induction in cultured hepatocytes (mRNA, qRT-PCR), CYP1A2; type: in vitro ADME; conditions: at 10 μM, hepatocytes 72 h, mean ± SD
[10] = Rat dose proportionality study (oral); conditions: male, Sprague-Dawley, plasma
[11] = Plasma pharmacokinetics in rats; conditions: male, Sprague-Dawley, rat, po, 10 mg/kg
CYP2C9 = biological target: T3, CYP2C9 (Homo sapiens, UniProt P11712); test: Cytochrome P450 inhibition in human liver microsomes, CYP2C9; type: in vitro ADME; conditions: mean ± SD, read-out: CYP inhibition 2C9 IC50
T3 construct: was evaluated in human liver microsomes incubated with SN32976; tissue Cyprotex (contract research organization); host or cells: human liver microsomes
T3 sequence (P11712 whole entry): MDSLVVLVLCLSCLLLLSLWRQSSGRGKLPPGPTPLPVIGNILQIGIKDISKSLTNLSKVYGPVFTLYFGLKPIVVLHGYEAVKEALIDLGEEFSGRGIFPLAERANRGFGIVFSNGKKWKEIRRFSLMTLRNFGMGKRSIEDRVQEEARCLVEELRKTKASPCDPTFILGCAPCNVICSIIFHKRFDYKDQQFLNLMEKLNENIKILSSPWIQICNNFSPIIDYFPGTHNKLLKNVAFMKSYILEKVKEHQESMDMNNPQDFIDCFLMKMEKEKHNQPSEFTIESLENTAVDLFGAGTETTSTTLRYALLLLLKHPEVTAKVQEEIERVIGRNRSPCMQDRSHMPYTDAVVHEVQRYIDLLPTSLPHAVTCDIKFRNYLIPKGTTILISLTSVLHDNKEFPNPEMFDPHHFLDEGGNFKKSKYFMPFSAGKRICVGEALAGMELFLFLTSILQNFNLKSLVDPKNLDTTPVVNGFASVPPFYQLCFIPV

CYP3A4 [12] = test: Cytochrome P450 induction in cultured hepatocytes (mRNA, qRT-PCR), CYP3A4; type: in vitro ADME; conditions: at 10 μM, hepatocytes 72 h, mean ± SD
CYP1A2 [13] = biological target: T4, CYP1A2 (Homo sapiens, UniProt P05177); test: Cytochrome P450 inhibition in human liver microsomes, CYP1A2; type: in vitro ADME; conditions: read-out: CYP inhibition 1A2 IC50
T4 construct: was evaluated in human liver microsomes incubated with SN32976; tissue Cyprotex (contract research organization); host or cells: human liver microsomes
T4 sequence (P05177 whole entry): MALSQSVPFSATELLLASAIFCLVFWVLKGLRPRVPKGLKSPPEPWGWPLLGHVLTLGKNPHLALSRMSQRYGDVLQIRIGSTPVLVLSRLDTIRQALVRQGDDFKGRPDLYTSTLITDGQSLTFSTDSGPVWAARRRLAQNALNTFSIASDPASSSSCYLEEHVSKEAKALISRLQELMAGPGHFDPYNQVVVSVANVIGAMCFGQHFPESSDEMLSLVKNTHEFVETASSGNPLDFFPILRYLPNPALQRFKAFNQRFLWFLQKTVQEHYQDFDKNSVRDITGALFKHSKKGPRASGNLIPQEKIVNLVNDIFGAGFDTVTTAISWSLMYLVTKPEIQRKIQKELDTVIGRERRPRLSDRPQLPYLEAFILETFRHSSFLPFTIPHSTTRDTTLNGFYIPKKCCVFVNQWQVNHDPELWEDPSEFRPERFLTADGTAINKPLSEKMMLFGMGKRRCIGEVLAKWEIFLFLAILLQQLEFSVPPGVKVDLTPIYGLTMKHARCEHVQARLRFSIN

CYP3A4 [14] = biological target: T5, CYP3A4 (Homo sapiens, UniProt P08684); test: Cytochrome P450 inhibition in human liver microsomes, CYP3A4; type: in vitro ADME; conditions: read-out: CYP inhibition 3A4 IC50
T5 construct: was evaluated in human liver microsomes incubated with SN32976; tissue Cyprotex (contract research organization); host or cells: human liver microsomes

CYP2C19 = biological target: T6, CYP2C19 (Homo sapiens, UniProt P33261); test: Cytochrome P450 inhibition in human liver microsomes, CYP2C19; type: in vitro ADME; conditions: read-out: CYP inhibition 2C19 IC50
T6 construct: was evaluated in human liver microsomes incubated with SN32976; tissue Cyprotex (contract research organization); host or cells: human liver microsomes

[15] = Plasma pharmacokinetics in dogs; conditions: male, Beagle, dog, po, 10 mg/kg
PIK3C2G = biological target: T7, PIK3C2G (Homo sapiens, UniProt O75747); test: KINOMEscan, PIK3C2G; type: binding; conditions: 10 μM
T7 construct: purchased Ambit Biosciences (scanMAXX KINOMEscan)
T7 sequence (O75747 1-1486): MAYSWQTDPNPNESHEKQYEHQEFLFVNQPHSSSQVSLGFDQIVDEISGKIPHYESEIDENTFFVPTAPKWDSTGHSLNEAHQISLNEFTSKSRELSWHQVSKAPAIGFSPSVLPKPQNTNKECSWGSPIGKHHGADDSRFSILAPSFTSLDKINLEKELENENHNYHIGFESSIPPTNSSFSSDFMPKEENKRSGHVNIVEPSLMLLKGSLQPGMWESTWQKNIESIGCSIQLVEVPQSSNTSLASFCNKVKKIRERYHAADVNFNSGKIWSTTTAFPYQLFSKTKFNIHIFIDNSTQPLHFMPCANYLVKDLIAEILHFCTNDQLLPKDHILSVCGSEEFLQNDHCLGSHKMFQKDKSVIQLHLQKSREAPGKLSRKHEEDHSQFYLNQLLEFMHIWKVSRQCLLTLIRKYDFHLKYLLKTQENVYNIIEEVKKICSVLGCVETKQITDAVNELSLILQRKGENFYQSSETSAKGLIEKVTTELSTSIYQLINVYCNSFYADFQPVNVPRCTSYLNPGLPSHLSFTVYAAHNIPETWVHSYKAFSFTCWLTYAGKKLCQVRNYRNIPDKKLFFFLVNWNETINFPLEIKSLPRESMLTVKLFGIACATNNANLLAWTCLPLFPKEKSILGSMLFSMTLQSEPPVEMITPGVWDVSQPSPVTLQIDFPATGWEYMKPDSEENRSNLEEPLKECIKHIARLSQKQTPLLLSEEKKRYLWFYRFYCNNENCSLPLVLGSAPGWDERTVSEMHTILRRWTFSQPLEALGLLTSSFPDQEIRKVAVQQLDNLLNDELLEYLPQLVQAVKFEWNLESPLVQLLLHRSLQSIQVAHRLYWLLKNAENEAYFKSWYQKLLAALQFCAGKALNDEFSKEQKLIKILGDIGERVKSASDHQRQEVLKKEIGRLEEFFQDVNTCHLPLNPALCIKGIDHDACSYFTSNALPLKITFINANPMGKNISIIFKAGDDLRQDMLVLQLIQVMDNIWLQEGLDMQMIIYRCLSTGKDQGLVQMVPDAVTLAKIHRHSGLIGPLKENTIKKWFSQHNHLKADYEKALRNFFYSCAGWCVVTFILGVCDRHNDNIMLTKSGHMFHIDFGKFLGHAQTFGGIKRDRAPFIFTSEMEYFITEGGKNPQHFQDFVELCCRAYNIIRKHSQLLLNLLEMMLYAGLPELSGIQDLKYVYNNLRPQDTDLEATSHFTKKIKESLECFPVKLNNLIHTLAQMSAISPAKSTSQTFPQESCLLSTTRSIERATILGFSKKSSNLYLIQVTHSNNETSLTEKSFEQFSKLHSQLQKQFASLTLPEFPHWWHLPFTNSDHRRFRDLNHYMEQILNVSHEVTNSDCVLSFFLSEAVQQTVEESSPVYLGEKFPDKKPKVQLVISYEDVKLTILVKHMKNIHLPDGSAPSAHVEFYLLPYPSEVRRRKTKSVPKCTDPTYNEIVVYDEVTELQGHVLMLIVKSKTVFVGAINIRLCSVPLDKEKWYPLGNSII

[16] = Solubility in potassium phosphate buffer; type: physicochemical; conditions: aqueous buffer, thermodynamic from solid
CYP2B6 = test: Cytochrome P450 induction in cultured hepatocytes (mRNA, qRT-PCR), CYP2B6; type: in vitro ADME; conditions: at 10 μM, hepatocytes 72 h, mean ± SD
[17] = Plasma pharmacokinetics in mice; conditions: male, CD1, mouse, po, 20 mg/kg
PI3Kα [18] = test system: PI3Kα; set-up: method as in PMID 23726034, PMID 23275335; conditions: cited from earlier work

Sequence of PI3Kγ (P48736 whole entry): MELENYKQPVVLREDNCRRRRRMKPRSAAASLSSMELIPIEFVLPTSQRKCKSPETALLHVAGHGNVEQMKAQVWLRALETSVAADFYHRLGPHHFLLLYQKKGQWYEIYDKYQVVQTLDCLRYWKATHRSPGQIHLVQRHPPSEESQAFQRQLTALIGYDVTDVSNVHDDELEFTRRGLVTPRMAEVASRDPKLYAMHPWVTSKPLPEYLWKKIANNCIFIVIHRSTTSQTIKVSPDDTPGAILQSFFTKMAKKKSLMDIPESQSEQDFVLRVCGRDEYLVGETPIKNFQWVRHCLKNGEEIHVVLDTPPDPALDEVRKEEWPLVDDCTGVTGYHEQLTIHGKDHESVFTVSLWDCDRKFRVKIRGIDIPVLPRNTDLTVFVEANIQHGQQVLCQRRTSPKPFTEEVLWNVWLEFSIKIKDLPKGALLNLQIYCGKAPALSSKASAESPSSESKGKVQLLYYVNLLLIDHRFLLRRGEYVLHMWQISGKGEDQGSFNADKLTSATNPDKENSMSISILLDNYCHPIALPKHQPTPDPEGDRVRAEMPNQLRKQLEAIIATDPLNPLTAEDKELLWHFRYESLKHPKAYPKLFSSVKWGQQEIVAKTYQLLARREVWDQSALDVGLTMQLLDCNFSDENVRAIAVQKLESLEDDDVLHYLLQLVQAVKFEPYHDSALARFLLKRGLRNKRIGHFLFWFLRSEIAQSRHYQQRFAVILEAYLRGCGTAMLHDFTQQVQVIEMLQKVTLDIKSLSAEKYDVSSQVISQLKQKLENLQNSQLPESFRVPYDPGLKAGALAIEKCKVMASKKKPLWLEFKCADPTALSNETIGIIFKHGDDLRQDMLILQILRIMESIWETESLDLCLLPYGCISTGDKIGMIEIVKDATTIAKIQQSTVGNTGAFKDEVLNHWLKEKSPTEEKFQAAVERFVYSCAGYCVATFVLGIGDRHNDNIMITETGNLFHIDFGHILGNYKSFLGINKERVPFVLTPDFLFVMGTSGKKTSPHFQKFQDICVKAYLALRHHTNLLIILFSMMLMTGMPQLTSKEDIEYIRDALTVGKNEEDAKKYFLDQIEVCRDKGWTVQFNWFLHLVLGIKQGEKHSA

SMILES: COc1cccc2c1nc(C(F)F)n2-c1nc(N2CCOCC2)nc(N2CCN(S(=O)(=O)CCN)CC2)n1 [M8]
IC50 (PI3Kγ): 68 ± 18.6 nM
contribution to combined plasma AUC [1]: 0.13%

SMILES: CNCCS(=O)(=O)N1CCN(c2nc(N3CCOCC3)nc(-n3c(C(F)F)nc4c(OC)cccc43)n2)CC1 [M9]
IC50 (PI3Kγ): 90.3 ± 17.1 nM
contribution to combined plasma AUC [1]: 27.1%
IC50 (mTOR): 244 ± 56 nM

metabolite quantity in liver microsomes (relative peak area class) [4]: major (major (>10% relative peak areas))
metabolite quantity in liver microsomes (relative peak area class) [5]: major (major (>10% relative peak areas))
SMILES: COc1cccc2c1nc(C(F)F)n2-c1nc(N2CCOCC2)nc(N2CCN(S(=O)(=O)CC[N+](C)(C)[O-])CC2)n1 [M10]
metabolite quantity in liver microsomes (relative peak area class) [2]: minor (minor (1-10% relative peak areas))
metabolite quantity in liver microsomes (relative peak area class) [3]: minor (minor (1-10% relative peak areas))
metabolite quantity in liver microsomes (relative peak area class) [6]: trace (trace (<1% relative peak areas in the total ion chromatograph))

metabolite quantity in liver microsomes (relative peak area class) [2]: major (major (>10% relative peak areas))
metabolite quantity in liver microsomes (relative peak area class) [3]: major (major (>10% relative peak areas))
IC50 (PI3Kγ): 26.3 ± 2.6 nM
contribution to combined plasma AUC [1]: 1.0%
IC50 (PI3Kα [7]; HTRF assay, ATP 10 μM, mean ± SEM): 6.2 ± 0.5 nM
selectivity for PI3Kα over all other PI3K isoforms and mTOR (PI3Kα [7]; ratio of biochemical IC50): 4.2 fold
metabolite quantity in liver microsomes (relative peak area class) [4]: major (major (>10% relative peak areas))
metabolite quantity in liver microsomes (relative peak area class) [5]: major (major (>10% relative peak areas))
IC50 (PI3Kδ): 55 ± 24.1 nM
IC50 (mTOR): 74.9 ± 25.1 nM
metabolite quantity in liver microsomes (relative peak area class) [6]: major (major (>10% relative peak areas))
metabolite AUC relative to parent in plasma [8]: 8.8 % of parent
metabolite AUC relative to parent in tumor [8]: 2.4 % of parent
IC50 (PI3Kβ): > 1000 nM
IC50 PI3Kβ (PI3Kβ): lacked activity
SMILES: C=CS(=O)(=O)N1CCN(c2nc(N3CCOCC3)nc(-n3c(C(F)F)nc4c(OC)cccc43)n2)CC1 [M17]

SMILES: COc1cccc2c1nc(C(F)F)n2-c1nc(N2CCOCC2)nc(N2CCN(S(=O)(=O)CCN(C)C)CC2)n1 [SN32976, 2-((4-(4-(2-(difluoromethyl)-4-methoxy-1H-benzo[d]imidazol-1-yl)-6-morpholino-1,3,5-triazin-2-yl)piperazin-1-yl)sulfonyl)-N, N-dimethylethan-1-amine]
IC50 (CYP2D6): > 25000 nM
off-target activity against PIK3C2B (PIK3C2B): off-target activity
CYP induction 1A2 (CYP1A2 [9]): 1.27 ± 0.01
AUC ([10]; 10 mg/kg): 0.417 µM·h
Cmax ([10]; 10 mg/kg): 34.1 nM
Tmax ([10]; 10 mg/kg): 4 h
half-life ([10]; 10 mg/kg): 2.27 h
AUC ([10]; 30 mg/kg): 1.07 µM·h
Cmax ([10]; 30 mg/kg): 125 nM
Tmax ([10]; 30 mg/kg): 1 h
half-life ([10]; 30 mg/kg): 4.62 h
AUC ([10]; 100 mg/kg): 16.4 µM·h
Cmax ([10]; 100 mg/kg): 893 nM
Tmax ([10]; 100 mg/kg): 1 h
half-life ([10]; 100 mg/kg): 9.77 h
AUC ([10]; 300 mg/kg): 139 µM·h
Cmax ([10]; 300 mg/kg): 6810 nM
Tmax ([10]; 300 mg/kg): 4 h
AUC [11]: 0.579 µM·h
bioavailability [11]: 8.1%
IC50 (CYP2C9): 20000 nM
IC50 (PI3Kγ): 110 ± 41 nM
CYP induction 3A4 (CYP3A4 [12]): 1.39 ± 0.21
IC50 (CYP1A2 [13]): > 25000 nM
contribution to combined plasma AUC [1]: 71.8%
IC50 (CYP3A4 [14]): > 25000 nM
IC50 (CYP2C19): > 25000 nM
AUC [15]: 3.22 µM·h
bioavailability [15]: 35.9%
off-target activity against PIK3C2G (PIK3C2G): off-target activity
IC50 (mTOR): 194 ± 55 nM
solubility ([16]; pH 2.0): > 100000 µM
solubility ([16]; pH 7.4, mean ± SD): 11.2 µM (≈ 6.51 µg/mL)
CYP induction 2B6 (CYP2B6): 0.31 ± 0.01
AUC [17]: 2.5 µM·h
bioavailability [17]: 33.4%

SMILES: Cc1nc(NC(=O)N2CCC[C@H]2C(N)=O)sc1-c1ccnc(C(C)(C)C(F)(F)F)c1 [alpelisib]
selectivity for PI3Kα over other class I PI3K isoforms and mTOR (PI3Kα [18]): > 50 fold

SMILES: Nc1nc2cc(-c3ccc4ncc(C(=O)N5CCOCC5)n4c3)ccc2o1 [serabelisib]
selectivity for PI3Kα over other class I PI3K isoforms and mTOR (PI3Kα [18]): > 50 fold
